Source: patent publication US20250221410A1, “SUBSTITUTED 2-C-AZINES AND SALTS THEREOF, AND USE THEREOF AS HERBICIDAL ACTIVE SUBSTANCES” (BAYER AKTIENGESELLSCHAFT, priority 2022, published 2025)

Legend:
Format in all cases: in vivo
[1] = tested on: ABUTH: Abutilon theophrasti; assay: Post-emergence herbicidal efficacy at 1280 g/ha, ABUTH; settings: rated visually after about 3 weeks vs untreated controls, 100% = plants have died, 0% = like control plants
Method in brief: (§1)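 Greenhouse pot test in sandy loam. Plants at the one-leaf stage, 2–3 weeks after sowing, were sprayed post-emergence with WP or EC formulations in water containing 0.5% additive, at 600 L/ha. Activity was scored visually about 3 weeks later against untreated controls (100% = dead, 0% = as control).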

[2] = tested on: ECHCG: Echinochloa crus-galli; assay: Post-emergence herbicidal efficacy at 1280 g/ha, ECHCG; settings: rated visually after about 3 weeks vs untreated controls, 100% = plants have died, 0% = like control plants
Method in brief: as §1

[3] = tested on: AMARE: Amaranthus retroflexus; assay: Post-emergence herbicidal efficacy at 1280 g/ha, AMARE; settings: rated visually after about 3 weeks vs untreated controls, 100% = plants have died, 0% = like control plants
Method in brief: as §1

[4] = tested on: STEME: Stellaria media; assay: Pre-emergence herbicide efficacy at 1280 g/ha, STEME; settings: visual scoring vs untreated controls
Method in brief: (§2)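 Efficacy is a visual percentage rating against untreated controls, taken about 3 weeks after soil-surface application to freshly sown, soil-covered seeds in sandy loam.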

[5] = tested on: AMARE: Amaranthus retroflexus; assay: Pre-emergence herbicide efficacy at 1280 g/ha, AMARE; settings: visual scoring after about 3 weeks vs untreated controls
Method in brief: as §2

[6] = tested on: VERPE: Veronica persica; assay: Post-emergence herbicidal efficacy at 1280 g/ha, VERPE; settings: visual rating about 3 weeks after treatment vs untreated controls
Method in brief: as §1

[7] = tested on: DIGSA: Digitaria sanguinalis; assay: Pre-emergence herbicide efficacy at 1280 g/ha, DIGSA; settings: visual scoring after about 3 weeks vs untreated controls
Method in brief: as §2

[8] = tested on: KCHSC: Kochia scoparia; assay: Post-emergence herbicidal efficacy at 1280 g/ha, KCHSC; settings: visual rating about 3 weeks after treatment vs untreated controls
Method in brief: as §1

[9] = tested on: KCHSC: Kochia scoparia; assay: Pre-emergence herbicide efficacy at 1280 g/ha, KCHSC; settings: visual scoring after about 3 weeks vs untreated controls
Method in brief: as §2

[10] = tested on: SETVI: Setaria viridis; assay: Post-emergence herbicidal efficacy at 1280 g/ha, SETVI; settings: visual rating about 3 weeks after treatment vs untreated controls
Method in brief: as §1

[11] = tested on: LOLRI: Lolium rigidum; assay: Pre-emergence herbicide efficacy at 1280 g/ha, LOLRI; settings: visual scoring after about 3 weeks vs untreated controls
Excerpt: (§3) Seeds of mono- and dicotyledonous weed plants were placed in plastic pots in sandy loam soil (doubly sown with one species each of mono- or dicotyledonous weed plants per pot) and covered with soil. The compounds of the invention, formulated in the form of wettable powders (WP) or as emulsion concentrates (EC), were then applied to the surface of the covering soil as aqueous suspension or emulsion with addition of 0.5% additive at a water application rate of 600 litres per hectare (converted). After the treatment, the pots were placed in a greenhouse and kept under good growth conditions for the test plants. After about 3 weeks, the efficacy of the preparations was scored visually in comparison with untreated controls as percentages. For example, 100% activity=the plants have died, 0% activity=like control plants. Tables C1 to C12 below show the effects of selected compounds of the general formula (I) according to Table 1 on various harmful plants and at an application rate corresponding to 1280 g/ha, which were obtained by the trial procedure specified above.

[12] = tested on: MATIN: Matricaria inodora; assay: Pre-emergence herbicide efficacy at 1280 g/ha, MATIN; settings: visual scoring after about 3 weeks vs untreated controls
Method in brief: as §2

[13] = tested on: STEME: Stellaria media; assay: Post-emergence herbicidal efficacy at 1280 g/ha, STEME; settings: visual rating about 3 weeks after treatment vs untreated controls
Method in brief: as §1

[14] = tested on: POAAN: Poa annua; assay: Post-emergence herbicidal efficacy at 1280 g/ha, POAAN; settings: visual rating about 3 weeks after treatment vs untreated controls
Method in brief: as §1

[15] = tested on: DIGSA: Digitaria sanguinalis; assay: Post-emergence herbicidal efficacy at 1280 g/ha, DIGSA; settings: rated visually after about 3 weeks vs untreated controls, 100% = plants have died, 0% = like control plants
Method in brief: as §1

[16] = tested on: SETVI: Setaria viridis; assay: Pre-emergence herbicide efficacy at 1280 g/ha, SETVI; settings: visual scoring vs untreated controls
Method in brief: as §2

[17] = tested on: VERPE: Veronica persica; assay: Pre-emergence herbicide efficacy at 1280 g/ha, VERPE; settings: visual scoring vs untreated controls
Method in brief: as §2

[18] = tested on: ABUTH: Abutilon theophrasti; assay: Pre-emergence herbicide efficacy at 1280 g/ha, ABUTH; settings: visual scoring after about 3 weeks vs untreated controls
Method in brief: as §2

[19] = tested on: ALOMY: Alopecurus myosuroides; assay: Pre-emergence herbicide efficacy at 1280 g/ha, ALOMY; settings: visual scoring after about 3 weeks vs untreated controls
Excerpt: as §3

[20] = tested on: ECHCG: Echinochloa crus-galli; assay: Pre-emergence herbicide efficacy at 1280 g/ha, ECHCG; settings: visual scoring after about 3 weeks vs untreated controls
Method in brief: as §2

[21] = tested on: POAAN: Poa annua; assay: Pre-emergence herbicide efficacy at 1280 g/ha, POAAN; settings: visual scoring after about 3 weeks vs untreated controls
Method in brief: as §2

[22] = tested on: VERPE: Veronica persica; assay: Post-emergence herbicidal efficacy at 80 g/ha, VERPE; settings: visual rating about 3 weeks after treatment vs untreated controls
Procedure: Seeds of monocotyledonous and dicotyledonous weeds and crop plants were placed in sandy loam in plastic or organic planting pots, covered with soil and cultivated in a greenhouse under controlled growth conditions. 2 to 3 weeks after sowing, the test plants were treated at the one-leaf stage. The compounds of the invention, formulated in the form of wettable powders (WP) or as emulsion concentrates (EC), were then sprayed onto the green parts of the plants as aqueous suspension or emulsion with addition of 0.5% additive at a water application rate of 600 l/ha (converted). After the test plants had been kept in the greenhouse under optimum growth conditions for about 3 weeks, the activity of the preparations was rated visually in comparison to untreated controls. For example, 100% activity=the plants have died, 0% activity=like control plants. Tables B1 to B10 below show the effects of selected compounds of the general formula (I) according to Table 1 on various harmful plants and an application rate corresponding to 80 g/ha, which were obtained by the experimental procedure mentioned above.

[23] = tested on: VERPE: Veronica persica; assay: Pre-emergence herbicide efficacy at 80 g/ha, VERPE; settings: scored visually after about 3 weeks
Excerpt: (§4) Seeds of monocotyledonous and dicotyledonous weed plants and crop plants were placed in plastic or organic planting pots and covered with soil. The compounds of the invention, formulated in the form of wettable powders (WP) or as emulsion concentrates (EC), were then applied to the surface of the covering soil as aqueous suspension or emulsion with addition of 0.5% additive at a water application rate equivalent to 600 l/ha. After the treatment, the pots were placed in a greenhouse and kept under good growth conditions for the test plants. After about 3 weeks, the efficacy of the preparations was scored visually in comparison with untreated controls as percentages. For example, 100% activity=the plants have died, 0% activity=like control plants. Tables D1 to D12 below show the effects of selected compounds of the general formula (I) according to Table 1 on various harmful plants and an application rate corresponding to 80 g/ha, which were obtained by the experimental procedure mentioned above.

[24] = tested on: AMARE: Amaranthus retroflexus; assay: Pre-emergence herbicide efficacy at 80 g/ha, AMARE; settings: scored visually after about 3 weeks
Method in brief: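 Applied to the soil surface directly after sowing, before emergence, as an aqueous WP or EC preparation containing 0.5% additive. Percent efficacy was rated by eye about 3 weeks later in the greenhouse.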

[25] = tested on: AMARE: Amaranthus retroflexus; assay: Post-emergence herbicidal efficacy at 80 g/ha, AMARE; settings: visual rating about 3 weeks after treatment vs untreated controls
Method in brief: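 Sow in sandy loam and grow in the greenhouse for 2 to 3 weeks. Spray the green parts at the one-leaf stage with a WP or EC suspension or emulsion plus 0.5% additive at 600 l/ha water. Keep plants about 3 weeks, then score damage visually against controls.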

[26] = tested on: ABUTH: Abutilon theophrasti; assay: Pre-emergence herbicide efficacy at 80 g/ha, ABUTH; settings: scored visually after about 3 weeks
Excerpt: as §4

[27] = tested on: POLCO; assay: Pre-emergence herbicide efficacy at 80 g/ha, POLCO; settings: Polygonum convolvulus, scored visually after about 3 weeks
Excerpt: as §4

Clc1cnc(Cc2c(Br)cccc2Oc2ncc(Cl)cn2)nc1 [Example 1-53]
90%: Post-emergence efficacy at 1280 g/ha against DIGSA in % [15]
100%: Post-emergence efficacy at 1280 g/ha against ABUTH in % [1] | Post-emergence efficacy at 1280 g/ha against ECHCG in % [2] | Post-emergence efficacy at 1280 g/ha against AMARE in % [3] | Pre-emergence efficacy against STEME in % [4] | Pre-emergence efficacy against AMARE [5] | Post-emergence efficacy against VERPE [6] | Pre-emergence efficacy against DIGSA [7] | Post-emergence efficacy against KCHSC [8] | Pre-emergence efficacy against KCHSC [9] | Post-emergence efficacy against SETVI [10] | Pre-emergence efficacy against LOLRI [11] | Pre-emergence efficacy against MATIN [12] | Post-emergence efficacy against STEME [13] | Post-emergence efficacy against POAAN [14] | Pre-emergence efficacy against SETVI in % [16] | Pre-emergence efficacy against VERPE in % [17] | Pre-emergence efficacy against ABUTH [18] | Pre-emergence efficacy against ALOMY [19] | Pre-emergence efficacy against ECHCG [20] | Pre-emergence efficacy against POAAN [21]

Fc1cccc(Oc2ncc(Cl)cn2)c1Cc1ncc(Cl)cn1 [Example 1-51]
100%: Post-emergence efficacy at 1280 g/ha against AMARE in % [3] | Pre-emergence efficacy against STEME in % [4] | Pre-emergence efficacy against AMARE [5] | Post-emergence efficacy against VERPE [6] | Post-emergence efficacy against VERPE [22] | Pre-emergence efficacy against DIGSA [7] | Pre-emergence efficacy against KCHSC [9] | Pre-emergence efficacy against MATIN [12] | Post-emergence efficacy against AMARE [25] | Pre-emergence efficacy against SETVI in % [16] | Pre-emergence efficacy against VERPE in % [17] | Pre-emergence efficacy against ABUTH [18]
80%: Pre-emergence efficacy against VERPE in % [23]
90%: Post-emergence efficacy against KCHSC [8] | Pre-emergence efficacy against AMARE in % [24] | Pre-emergence efficacy against ECHCG [20] | Pre-emergence efficacy against POAAN [21]

Fc1cnc(Cc2ccccc2-c2cc(C(F)F)no2)nc1 [Example 1-135]
100%: Pre-emergence efficacy against AMARE in % [24] | Post-emergence efficacy against AMARE [25]
95%: Pre-emergence efficacy against VERPE in % [23] | Pre-emergence efficacy against ABUTH in % [26]
90%: Pre-emergence efficacy against POLCO in % [27]

Fc1cnc(Oc2cccc(Cl)c2Cc2ncc(Cl)cn2)nc1 [Example 1-57]
100%: Pre-emergence efficacy against STEME in % [4] | Pre-emergence efficacy against AMARE [5] | Pre-emergence efficacy against DIGSA [7] | Pre-emergence efficacy against KCHSC [9] | Pre-emergence efficacy against LOLRI [11] | Pre-emergence efficacy against MATIN [12] | Pre-emergence efficacy against SETVI in % [16] | Pre-emergence efficacy against VERPE in % [17] | Pre-emergence efficacy against ABUTH [18] | Pre-emergence efficacy against ALOMY [19] | Pre-emergence efficacy against ECHCG [20] | Pre-emergence efficacy against POAAN [21]
90%: Post-emergence efficacy at 1280 g/ha against ABUTH in % [1] | Post-emergence efficacy at 1280 g/ha against ECHCG in % [2] | Post-emergence efficacy at 1280 g/ha against AMARE in % [3] | Post-emergence efficacy against VERPE [6] | Post-emergence efficacy against KCHSC [8] | Post-emergence efficacy against SETVI [10] | Post-emergence efficacy against STEME [13] | Post-emergence efficacy against POAAN [14] | Post-emergence efficacy at 1280 g/ha against DIGSA in % [15]
